Experimental data taken from the supplement of paper PMC10307832.

Legend:
Experiment in all cases: relative viability (nuclei count vs DMSO), 5 days (fraction); higher = more cells survive
Ruxolitinib + Alpelisib = compound: N#CC[C@H](C1CCCC1)n1cc(-c2ncnc3[nH]ccc23)cn1 [Ruxolitinib] + Cc1nc(NC(=O)N2CCC[C@H]2C(N)=O)sc1-c1ccnc(C(C)(C)C(F)(F)F)c1 [Alpelisib] (partner 2 µM)
Outline: (§1)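 Relative viability equals treated-well nuclei counts divided by vehicle-well nuclei counts. Counts came from 4× images of lung cancer cell lines grown in 1536-well plates for 5 days after pin-tool dosing on the day after seeding. Dosing used one drug alone or a fixed anchor-drug dose plus five library-drug doses (not always all listed) in √10 steps, and values are medians of duplicate plates.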

Ruxolitinib + OSI-027 = compound: N#CC[C@H](C1CCCC1)n1cc(-c2ncnc3[nH]ccc23)cn1 [Ruxolitinib] + COc1cccc2cc(-c3nc([C@H]4CC[C@H](C(=O)O)CC4)n4ncnc(N)c34)[nH]c12 [OSI-027] (partner 0.5 µM)
Outline: as §1

Ruxolitinib + Crizotinib = compound: N#CC[C@H](C1CCCC1)n1cc(-c2ncnc3[nH]ccc23)cn1 [Ruxolitinib] + C[C@@H](Oc1cc(-c2cnn(C3CCNCC3)c2)cnc1N)c1c(Cl)ccc(F)c1Cl [Crizotinib] (partner 1 µM)
Outline: as §1

Ruxolitinib + Foretinib = compound: N#CC[C@H](C1CCCC1)n1cc(-c2ncnc3[nH]ccc23)cn1 [Ruxolitinib] + COc1cc2c(Oc3ccc(NC(=O)C4(C(=O)Nc5ccc(F)cc5)CC4)cc3F)ccnc2cc1OCCCN1CCOCC1 [Foretinib] (partner 0.25 µM)
Outline: as §1

| Cell Line | relative viability (Ruxolitinib + Alpelisib; first compound 0.08 µM) | relative viability (Ruxolitinib + Alpelisib; first compound 0.253 µM) | relative viability (Ruxolitinib + Alpelisib; first compound 0.8 µM) | relative viability (Ruxolitinib + Alpelisib; first compound 2.53 µM) | relative viability (Ruxolitinib + Alpelisib; first compound 8 µM) | relative viability (Ruxolitinib + OSI-027; first compound 0.08 µM) | relative viability (Ruxolitinib + OSI-027; first compound 0.253 µM) | relative viability (Ruxolitinib + OSI-027; first compound 0.8 µM) | relative viability (Ruxolitinib + OSI-027; first compound 2.53 µM) | relative viability (Ruxolitinib + OSI-027; first compound 8 µM) | relative viability (Ruxolitinib + Crizotinib; first compound 0.08 µM) | relative viability (Ruxolitinib + Crizotinib; first compound 0.253 µM) | relative viability (Ruxolitinib + Crizotinib; first compound 0.8 µM) | relative viability (Ruxolitinib + Crizotinib; first compound 8 µM) | relative viability (Ruxolitinib + Foretinib; first compound 0.08 µM) | relative viability (Ruxolitinib + Foretinib; first compound 0.253 µM) | relative viability (Ruxolitinib + Foretinib; first compound 0.8 µM) | relative viability (Ruxolitinib + Foretinib; first compound 2.53 µM) | relative viability (Ruxolitinib + Foretinib; first compound 8 µM) | relative viability (Ruxolitinib + Crizotinib; first compound 2.53 µM) |
| --- | --- | --- | --- | --- | --- | --- | --- | --- | --- | --- | --- | --- | --- | --- | --- | --- | --- | --- | --- | --- |
| NCI-H661 | 0.406 | 0.623 | 0.579 | 0.583 | 0.252 | 0.752 | 0.664 | 0.834 | 0.664 | 0.666 | 0.941 | 1.02 | 0.941 | 0.841 | 0.92 | 1.05 | 1.08 | 0.94 | 0.926 | – |
| NCI-H727 | 0.604 | 0.597 | 0.874 | 0.749 | 0.338 | 0.557 | 0.482 | 0.817 | 0.472 | 0.524 | 0.93 | 0.799 | 1.1 | 0.962 | 1.21 | 0.976 | 1.3 | 0.873 | 1.03 | 0.832 |
| NCI-H838 | 0.848 | 0.973 | 0.823 | 0.618 | 0.31 | 0.39 | 0.318 | 0.386 | 0.266 | 0.267 | 0.751 | 0.723 | 0.682 | 0.342 | 1.06 | 0.994 | 0.907 | 0.572 | 0.453 | 0.591 |
| NCI-H1355 | 0.793 | 0.83 | 0.85 | 0.58 | 0.612 | 0.382 | 0.328 | 0.388 | 0.373 | 0.318 | 1.08 | 1.01 | 1.06 | 0.907 | 0.85 | 0.967 | 1.12 | 0.87 | 0.893 | 0.839 |
| NCI-H1437 | 0.871 | 0.807 | 1.01 | 1.03 | 0.795 | 0.965 | 0.758 | 0.926 | 0.752 | 0.78 | 0.924 | 1.08 | 0.872 | 0.778 | 1.37 | 1.51 | 1.41 | 1.35 | 1.17 | 0.795 |
| NCI-H1563 | 0.923 | 0.813 | 1 | 0.895 | 0.818 | 0.803 | 0.721 | 0.714 | 0.658 | 0.675 | 0.865 | 0.84 | 0.931 | 0.838 | 0.994 | 0.976 | 0.997 | 0.852 | 0.94 | 0.704 |
| NCI-H1651 | 0.941 | 0.875 | 1.08 | 1.09 | 0.968 | 0.774 | 0.718 | 0.842 | 0.659 | 0.723 | 0.8 | 0.893 | 0.847 | 0.842 | 0.621 | 0.791 | 0.947 | 0.776 | 0.95 | 0.779 |
| NCI-H1666 | 0.973 | 0.821 | 1.06 | 0.823 | 1 | 0.877 | 0.842 | 0.864 | 0.782 | 0.968 | 1.03 | 0.974 | 0.986 | 0.909 | 0.844 | 0.93 | 1.01 | 0.856 | 0.892 | 0.878 |
